Counter-ions that a name gives are not always drawn.
system: Acinetobacter baumannii ATCC17978; assay: Antimicrobial susceptibility testing: 90% growth inhibitory concentration (IC90) determination; format: cell-based; details: 90% growth inhibitory concentration, Acinetobacter baumannii ATCC17978, Iso-Sensitest broth, OD 600 nm over 16 h; read-out: ATCC17978 IC90
Description: The in vitro antimicrobial activity of the compounds was determined according to the following procedure:
The assay used a 10-points Iso-Sensitest broth medium to measure quantitatively the in vitro activity of the compounds against Acinetobacter baumannii ATCC17978 and Acinetobacter baumannii ATCC17961.
Stock compounds in DMSO were serially twofold diluted (e.g. range from 50 to 0.097 μM final concentration) in 384 wells microtiter plates and inoculated with 49 μl the bacterial suspension in Iso-Sensitest medium to have a final cell concentration of ˜5×10^(5) CFU/ml in a final volume/well of 50 ul/well. Microtiter plates were incubated at 35±2° C.
Bacterial cell growth was determined with the measurement of optical density at λ=600 nm each 20 minutes over a time course of 16 h. Growth inhibition was calculated during the logarithmic growth of the bacterial cells with determination of the concentration inhibiting 50% (IC50) and 90% (IC90) of the growth.
Table 1 provides the 90% growth inhibitory concentrations (IC90) in micromoles per liter of the compounds of present invention obtained against the strain Acinetobacter baumannii ATCC17978 and Acinetobacter baumannii ATCC17961.

`COc1ccc(-c2cnc3c(Nc4ccc(C(=O)N5CCC(C(=O)N6CCNC(C(=O)O)C6)CC5)c(Cl)c4)nccn23)cc1F` (centres unmarked) [Example 59, 4-[1-[2-chloro-4-[[3-(3-fluoro-4-methoxyphenyl)imidazo[1,2-a]pyrazin-8-yl]amino]benzoyl]piperidine-4-carbonyl]piperazine-2-carboxylic acid] gave an IC90 of 1200 nM.

same assay, conditions: Acinetobacter baumannii, ATCC17978, 16 h, 90% growth inhibitory concentration, Acinetobacter baumannii ATCC17978, Iso-Sensitest broth, OD 600 nm over 16 h; read-out: ATCC17978 IC90

`COc1ccc(-c2cnc3c(Nc4ccc(C(=O)N5CCN(CCN6CCC6)CC5)c(Cl)c4)nccn23)cc1F` [Example 57, [4-[2-(azetidin-1-yl)ethyl]piperazin-1-yl]-[2-chloro-4-[[3-(3-fluoro-4-methoxyphenyl)imidazo[1,2-a]pyrazin-8-yl]amino]phenyl]methanone] and `COc1ccc(-c2cnc3c(Nc4ccc(C(=O)N5CCN(CCNC6CC6)CC5)c(Cl)c4)nccn23)cc1F` [Example 58, [2-chloro-4-[[3-(3-fluoro-4-methoxyphenyl)imidazo[1,2-a]pyrazin-8-yl]amino]phenyl]-[4-[2-(cyclopropylamino)ethyl]piperazin-1-yl]methanone] are the same in IC90: 330 nM for the first, 330 nM for the second.

Going from `COc1ccc(-c2cnc3c(Nc4ccc(C(=O)N5CCC(C(=O)NCC(O)CN)CC5)c(Cl)c4)nccn23)cc1F` (centres unmarked) [Example 60, N-(3-amino-2-hydroxypropyl)-1-[2-chloro-4-[[3-(3-fluoro-4-methoxyphenyl)imidazo[1,2-a]pyrazin-8-yl]amino]benzoyl]piperidine-4-carboxamide;hydrochloride] to `COc1ccc(-c2cnc3c(Nc4ccc(C(=O)N5CCC(C(=O)N6CCNC(CO)C6)CC5)c(Cl)c4)nccn23)cc1F` (centres unmarked) [Example 70, [2-chloro-4-[[3-(3-fluoro-4-methoxyphenyl)imidazo[1,2-a]pyrazin-8-yl]amino]phenyl]-[4-[3-(hydroxymethyl)piperazine-1-carbonyl]piperidin-1-yl]methanone;hydrochloride], the IC90 rises from 140 nM to 270 nM (1.9-fold).

Going from `COc1ccc(-c2cnc3c(Nc4ccc(C(=O)N5CCOCC5)cc4)nccn23)cc1` [Example 61, [4-[[3-(4-methoxyphenyl)imidazo[1,2-a]pyrazin-8-yl]amino]phenyl]-morpholin-4-ylmethanone] to `COc1ccc(-c2cnc3c(Nc4ccc(C(=O)N5CCN(C)CC5)cc4)nccn23)cc1` [Example 64, [4-[[3-(4-methoxyphenyl)imidazo[1,2-a]pyrazin-8-yl]amino]phenyl]-(4-methylpiperazin-1-yl)methanone], the IC90 rises from 580 nM to 1400 nM (2.4-fold).

First: COc1ccc(-c2cnc3c(Nc4ccc(C(=O)N5CCC(O)CC5)cc4)nccn23)cc1Cl [Example 62, [4-[[3-(3-chloro-4-methoxyphenyl)imidazo[1,2-a]pyrazin-8-yl]amino]phenyl]-(4-hydroxypiperidin-1-yl)methanone]
Second: COc1ccc(-c2cnc3c(Nc4ccc(C(=O)N5CCCCC5)cc4)nccn23)cc1Cl [Example 65, [4-[[3-(3-chloro-4-methoxyphenyl)imidazo[1,2-a]pyrazin-8-yl]amino]phenyl]-piperidin-1-ylmethanone]
The IC90 of the first is 1.7-fold lower: 900 nM for the first, 1500 nM for the second.

Compared with `COc1ccc(-c2cnc3c(Nc4ccc(C(=O)N5CCN(CCO)CC5)cc4)nccn23)cc1` [Example 63, [4-(2-hydroxyethyl)piperazin-1-yl]-[4-[[3-(4-methoxyphenyl)imidazo[1,2-a]pyrazin-8-yl]amino]phenyl]methanone], `COc1ccc(-c2cnc3c(Nc4ccc(C(=O)N5CCC(N(C)C)C5)cc4)nccn23)cc1` (centres unmarked) [Example 66, [3-(dimethylamino)pyrrolidin-1-yl]-[4-[[3-(4-methoxyphenyl)imidazo[1,2-a]pyrazin-8-yl]amino]phenyl]methanone] is 5.4-fold higher in IC90: 1100 nM for the first, 5900 nM for the second.

`O=C(c1ccc(Nc2nccn3c(-c4ccc(OC(F)F)cc4)cnc23)cc1Cl)N1CCC(N2CCNCC2)CC1` [Example 67, [2-chloro-4-[[3-[4-(difluoromethoxy)phenyl]imidazo [1,2-a]pyrazin-8-yl]amino]phenyl]-(4-piperazin-1-ylpiperidin-1-yl)methanone;hydrochloride] and `CN(C)CCN1CCN(C(=O)c2ccc(Nc3nccn4c(-c5ccc(OC(F)F)cc5)cnc34)cc2Cl)CC1` [Example 69, [2-chloro-4-[[3-[4-(difluoromethoxy)phenyl]imidazo[1,2-a]pyrazin-8-yl]amino]phenyl]-[4-[2-(dimethylamino)ethyl]piperazin-1-yl]methanone] are within 1.5-fold of each other in IC90: 170 nM for the first, 140 nM for the second.

Going from `COc1ccc(-c2cnc3c(Nc4ccc(C(=O)N5CCN(CCN(C)C)CC5)c(Cl)c4)nccn23)c(Cl)c1F` [Example 68, [2-chloro-4-[[3-(2-chloro-3-fluoro-4-methoxyphenyl)imidazo[1,2-a]pyrazin-8-yl]amino]phenyl]-[4-[2-(dimethylamino)ethyl]piperazin-1-yl]methanone] to `COc1ccc(-c2cnc3c(Nc4ccc(C(=O)N5CCN(CCN(C)C)CC5)c(Br)c4)nccn23)cc1F` [Example 81, [2-bromo-4-[[3-(3-fluoro-4-methoxyphenyl)imidazo[1,2-a]pyrazin-8-yl]amino]phenyl]-[4-[2-(dimethylamino)ethyl]piperazin-1-yl]methanone;formic acid], the IC90 rises from 110 nM to 290 nM (2.6-fold).

Compared with `COc1ccc(-c2cnc3c(Nc4ccc(C(=O)N5CCN(C6CCNC6)CC5)c(Cl)c4)nccn23)cc1F` (centres unmarked) [Example 71, [2-chloro-4-[[3-(3-fluoro-4-methoxyphenyl)imidazo[1,2-a]pyrazin-8-yl]amino]phenyl]-(4-pyrrolidin-3-ylpiperazin-1-yl)methanone;hydrochloride], `COc1ccc(-c2cnc3c(Nc4ccc(C(=O)N5CCN(Cc6cnc[nH]6)CC5)c(Cl)c4)nccn23)cc1F` [Example 72, [2-chloro-4-[[3-(3-fluoro-4-methoxyphenyl)imidazo[1,2-a]pyrazin-8-yl]amino]phenyl]-[4-(1H-imidazol-5-ylmethyl)piperazin-1-yl]methanone] is 1.8-fold higher in IC90: 280 nM for the first, 510 nM for the second.

Compared with `COc1ccc(-c2cnc3c(Nc4ccc(C(=O)N5CCN(C)CC5)cc4)nccn23)cc1Cl` [Example 74, [4-[[3-(3-chloro-4-methoxyphenyl)imidazo[1,2-a]pyrazin-8-yl]amino]phenyl]-(4-methylpiperazin-1-yl)methanone], `COc1ccc(-c2cnc3c(Nc4ccc(C(=O)N5CCC(CN)CC5)c(Br)c4)nccn23)cc1F` [Example 80, [4-(aminomethyl)piperidin-1-yl]-[2-bromo-4-[[3-(3-fluoro-4-methoxyphenyl)imidazo[1,2-a]pyrazin-8-yl]amino]phenyl]methanone] is 31-fold lower in IC90: 2700 nM for the first, 87 nM for the second.

First: C#CCOc1ccc(-c2cnc3c(Nc4ccc(C(=O)N5CCC(CN)CC5)c(Cl)c4)nccn23)c(F)c1F [Example 75, [4-(aminomethyl)piperidin-1-yl]-[2-chloro-4-[[3-(2,3-difluoro-4-prop-2-ynoxyphenyl)imidazo[1,2-a]pyrazin-8-yl]amino]phenyl]methanone]
Second: N#CCOc1ccc(-c2cnc3c(Nc4ccc(C(=O)N5CCOCC5)c(Cl)c4)nccn23)c(F)c1F [Example 79, 2-[4-[8-[3-chloro-4-(morpholine-4-carbonyl)anilino]imidazo[1,2-a]pyrazin-3-yl]-2,3-difluorophenoxy]acetonitrile]
The IC90 of the first is 1.9-fold lower: 85 nM for the first, 160 nM for the second.

Compared with `NCC1CCN(C(=O)c2ccc(Nc3nccn4c(-c5ccc(OCC#CCO)c(F)c5)cnc34)cc2Cl)CC1` [Example 76, [4-(aminomethyl)piperidin-1-yl]-[2-chloro-4-[[3-[3-fluoro-4-(4-hydroxybut-2-ynoxy)phenyl]imidazo[1,2-a]pyrazin-8-yl]amino]phenyl]methanone], `CNCC(=O)N1CCN(C(=O)c2ccc(Nc3nccn4c(-c5ccc(OCC#N)c(F)c5F)cnc34)cc2Cl)CC1` [Example 77, 2-[4-[8-[3-chloro-4-[4-[2-(methylamino)acetyl]piperazine-1-carbonyl]anilino]imidazo[1,2-a]pyrazin-3-yl]-2,3-difluorophenoxy]acetonitrile] is 3.3-fold lower in IC90: 240 nM for the first, 73 nM for the second.

`CN(C)CCN1CCN(C(=O)c2ccc(Nc3nccn4c(-c5ccc(OCC#N)c(F)c5F)cnc34)cc2Br)CC1` [Example 78, 2-[4-[8-[3-bromo-4-[4-[2-(dimethylamino)ethyl]piperazine-1-carbonyl]anilino]imidazo[1,2-a]pyrazin-3-yl]-2,3-difluorophenoxy]acetonitrile; formic acid] was tested, and the IC90 was 280 nM.

same assay, conditions: Acinetobacter baumannii, ATCC17978, 16 h, read-out: ATCC17978 IC90

Going from `COc1ccc(-c2cnc3c(Nc4ccc(C(=O)N5CCN(C6CNC6)CC5)c(Cl)c4)nccn23)cc1F` [Example 73, [4-(azetidin-3-yl)piperazin-1-yl]-[2-chloro-4-[[3-(3-fluoro-4-methoxyphenyl)imidazo[1,2-a]pyrazin-8-yl]amino]phenyl]methanone; hydrochloride] to `Cc1cc(Nc2nccn3c(-c4ccc(OC(F)F)cc4)cnc23)ccc1C(=O)N1CCN(C(=O)N2CCN[C@H](C(=O)O)C2)CC1` [Example 82, (2S)-4-[4-[4-[[3-[4-(difluoromethoxy)phenyl]imidazo [1,2-a]pyrazin-8-yl]amino]-2-methylbenzoyl]piperazine-1-carbonyl]piperazine-2-carboxylic acid;hydrochloride], the IC90 rises from 530 nM to 1000 nM (1.9-fold).
